The values below come from PubChem BioAssay AID720713 (Broad Institute, 2013).

The source made the active and inactive calls. How the calls were made is not given here.

The first assay deals with A549 cytotoxicity, plate reader. Nature of the assay: A549 cell cytotoxicity, dose response, plate reader, dry powder, set 2 (AID 720713).
Settings: not given
Consider `COc1ccc(NC(=O)c2nc(S(=O)(=O)Cc3cccc(C)c3)ncc2Cl)c(OC)c1`, for which the AC50 was > 52 µM (inactive).

As for `CN(C)c1nc(-c2ccccn2)nnc1-c1ccccc1`, the AC50 is 25.6 µM.

Test system in a further assay: not listed separately
The assay is described as above. The settings on record: A549 cytotoxicity, plate reader; at 12 µM (top of the series).
Take `CN(C(=O)COc1ccccc1C(=O)NCCOc1ccccc1)c1ccccc1`: the activity change, negative = cytotoxicity is 2.59% (inactive).

Still in this assay, the particulars now being: A549 cytotoxicity, plate reader; at 26 µM (top of the series).
Turning to `CCOC(=O)C1CCN(C(=O)c2ccc(OCC(=O)Nc3cccc(C(F)(F)F)c3)c(OC)c2)CC1`, the activity change, negative = cytotoxicity was -17.5% (inactive).

`Cc1cc2c(cc(C(=O)N3CCC(C(=O)NC4CCCC4)CC3)n2Cc2c(F)cccc2Cl)o1`: the activity change, negative = cytotoxicity was -19.5% (inactive).

Regarding `O=C1CSc2ccc(C(=O)Nc3cccc(S(=O)(=O)Nc4ccc(Br)cc4)c3)cc2N1`, the activity change, negative = cytotoxicity was 12% (inactive).

Take `CC(C)(C)NC(=O)CSc1nc2ccc(NC(=O)CSc3nnnn3Cc3ccccc3)cc2s1`: the activity change, negative = cytotoxicity is 16.7% (inactive).

For `Fc1ccc(-n2nnnc2-c2cnc(-c3cccs3)nc2C(F)(F)F)cc1`, the activity change, negative = cytotoxicity was 2.19% (inactive).

Take `CCOC(=O)C1(Cc2ccc(Cl)cc2)CCN(C(C)Cc2ccc(O)c(OC)c2)CC1` (configuration not stated): the activity change, negative = cytotoxicity is 1.75% (inactive).

For `CC(=O)N1CCN(C(=O)CCc2cc(C(C)(C)C)c(O)c(C(C)(C)C)c2)CC1`, the activity change, negative = cytotoxicity is -4.62% (inactive).

With `Nc1nonc1C(=O)NCCNCc1cc(Br)ccc1OCc1ccc(F)cc1`, the activity change, negative = cytotoxicity is 4.85% (inactive).

Consider `COc1ccc2c(c1)c(CC(=O)Nc1cc(C)ccc1C)c(C)n2C(=O)c1ccc(Cl)cc1`, for which the activity change, negative = cytotoxicity was -1.36% (inactive).

As for `CN(CC(=O)Nc1cccc(S(=O)(=O)N2CCOCC2)c1)CC(=O)Nc1ccc(Cl)c(C(F)(F)F)c1`, the activity change, negative = cytotoxicity is 8.78% (inactive).

As for `COc1ccccc1N1CCN(c2ncc(C(=O)N3CCN(c4cccc(Cl)c4)CC3)c3ccccc23)CC1`, the activity change, negative = cytotoxicity was 4.47% (inactive).

For the molecule `CCCc1nnc(NC(=O)c2nc(S(=O)(=O)Cc3ccc(C)cc3)ncc2Cl)s1`, the activity change, negative = cytotoxicity was 8.63% (inactive).

`COc1ccc(NS(=O)(=O)c2ccc(C(=O)N3CCCCCC3)cc2)cc1`: the activity change, negative = cytotoxicity was 22% (inactive).

For `O=c1c2ccccc2nc2n1C(CSCc1ccc(Cl)cc1Cl)CS2` (configuration not stated), the activity change, negative = cytotoxicity was 6.09% (inactive).

As to `COc1cc2ncnc(N[C@H](C)c3ccccc3)c2cc1OC`, the activity change, negative = cytotoxicity was 10.2% (inactive).

As for `CC(C)[C@H](NC(=O)OC(C)(C)C)c1nnc(S(=O)(=O)Cc2c(F)cccc2Cl)o1`, the activity change, negative = cytotoxicity is 22.5% (inactive).

Consider `CCOC(=O)c1ccc(NC(=O)Cn2ncc(Cl)c(Cl)c2=O)cc1`, for which the activity change, negative = cytotoxicity is -6.56% (inactive).

On to `CC(=O)Nc1cccc(NC(=O)CSc2ncc(-c3ccc(Cl)cc3)n2Cc2ccco2)c1`, for which the activity change, negative = cytotoxicity was 11.6% (inactive).

With `O=C(c1nnsc1S(=O)c1ccc(Cl)cc1)N1CCOCC1` (configuration not stated), the activity change, negative = cytotoxicity was -41.1% (inactive).

Regarding `CN(C)S(=O)(=O)c1cccc(NC(=O)c2cccc(S(=O)(=O)N3CCc4ccccc43)c2)c1`, the activity change, negative = cytotoxicity was -0.758% (inactive).

For `COc1ccc(Nc2nc(N3CCCCC3)c3ccccc3n2)cc1`, the activity change, negative = cytotoxicity is 5.38% (inactive).

For `Cc1ccc2cc(CN(CC3CCCO3)C(=O)NC3CCCCC3)c(=O)[nH]c2c1C` (configuration not stated), the activity change, negative = cytotoxicity was 106% (inactive).

Take `COc1cc(CN2CCc3ccccc3C2)ccc1O`: the activity change, negative = cytotoxicity was -37.2% (inactive).

In the case of `Cc1cc(N2CCCC2=O)cc(C)c1S(=O)(=O)NCCOc1ccc(C(C)(C)C)cc1`, the activity change, negative = cytotoxicity is 11% (inactive).

In general, AC50 refers to the concentration giving half of the maximal activity seen.
